Where a name gives a salt, the structure may show the parent alone. Non-standard residues stand in square brackets, D forms with d. Residues, ends and D or L forms follow the SMILES beside them. No end group written: not given here. pGlu = O=C1CC[C@@H](C(=O)O)N1
Key:
[1] = tested on: T lymphocytes isolated from spleens of male CBA/J or NZB mice; test: T lymphocyte proliferation, 3H-thymidine uptake; format: cell-based
Experimental: The activity of the compounds of Examples is determined according to the following procedure:
T lymphocytes are isolated from spleens of male CBA/J or NZB mice. Cell homogenates are prepared in Hank's balanced salt solution (HBSS). After removal of larger particles and repeated washing of the cells in HBSS they are suspended in minimum essential medium (MEM) and passed through a glass wool column to remove macrophages. The cells are then incubated on a nylon wool column at 37° C., 95% air, 5% CO2, for 45 minutes. The non-adherant T lymphocytes are then eluted from the column, counted, and adjusted to 20×10^6 cells/ml. 50 μl. of cells are cultured (37° C., 95% air, 5% Co2) with compound, for 48 hours before addition of 0.5 μCi. of 3H-thymidine for the last 16 hours of culture. The total volume of the culture system is 200 μl. The cells are then harvested on a multiple automatic sample harvester (Mash II), the glass fiber filter disks placed in 10 ml. of xylene base scintillation fluid, and counted for 1 minute in a liquid scintillation counter. Results are reported as CPM±SE. Levamisole is used as the standard. Comparisons are made between counts obtained with control cultures and cultures containing compound and a determination made as to whether the compounds are active at the dosage tested.

[2] = several biological models; Low et al.; cited from earlier work
[3] = 1.5 ng/culture, control (0 ng) 49,519 ± 4048
[4] = 6.0 ng/culture, control (0 ng) 49,519 ± 4048
[5] = 25.0 ng/culture, control (0 ng) 49,519 ± 4048
[6] = 100.0 ng/culture, control (0 ng) 49,519 ± 4048

## CC(C)[C@H](NC(=O)[C@H](CCC(=O)O)NC(=O)[C@H](CCCCN)NC(=O)[C@@H](N)CCCCN)C(=O)O [H-- Lys--Lys--Glu Val--OH, L-Lysyl-L-lysyl-L-glutamyl-L-valine, diacetate salt] (H-KKEV-OH)
[1]; 2.5 ng/culture, control (0 ng) 2,789 ± 148
  3H-Thymidine Uptake CPM + S.E.: 3,931 ± 140 CPM
[1]; 10 ng/culture, control (0 ng) 2,789 ± 148
  3H-Thymidine Uptake CPM + S.E.: 3,745 ± 172 CPM
[1]; 25 ng/culture, control (0 ng) 2,789 ± 148
  3H-Thymidine Uptake CPM + S.E.: 4,397 ± 346 CPM
[1]; 100 ng/culture, control (0 ng) 2,789 ± 148
  3H-Thymidine Uptake CPM + S.E.: 4,235 ± 284 CPM

## CC(=O)O.CC(=O)O.CC(=O)O.CC(C)[C@H](NC(=O)[C@H](CCC(=O)O)NC(=O)[C@H](CCCCN)NC(=O)[C@@H](N)CCCCN)C(N)=O [H--Lys--Lys--Glu--Val--NH2, L-lysyl-L-lysyl-L-glutamyl-L-valineamide, triacetate salt] (H-KKEV-NH2)
[1]; [3]
  3H-Thymidine Uptake CPM + S.E.: 72,713 ± 3633 CPM
[1]; [4]
  3H-Thymidine Uptake CPM + S.E.: 77,979 ± 3760 CPM
[1]; [5]
  3H-Thymidine Uptake CPM + S.E.: 62,712 ± 6004 CPM
[1]; [6]
  3H-Thymidine Uptake CPM + S.E.: 51,021 ± 5527 CPM

## c1ccc([C@H]2CN3CCSC3=N2)cc1 [Levamisole, reference compound]
[1]; 5 ng/culture, 48 h culture, 3H-thymidine last 16 h, control 49,519 ± 4048
  3H-Thymidine Uptake CPM + S.E.: 70,353 ± 1561 CPM

## NCCCC[C@H](NC(=O)[C@H](CCCCN)NC(=O)[C@@H]1CCC(=O)N1)C(=O)N[C@@H](CCC(=O)O)C(N)=O [p-Glu--Lys--Lys--Glu--NH2, L-(5-oxoprolyl)-L-lysyl-L-lysyl-L-α-glutamine, diacetate salt] ([pGlu]KKE-NH2)
[1]; [3]
  3H-Thymidine Uptake CPM + S.E.: 73,407 ± 3333 CPM
[1]; [4]
  3H-Thymidine Uptake CPM + S.E.: 78,727 ± 7102 CPM
[1]; [5]
  3H-Thymidine Uptake CPM + S.E.: 73,932 ± 6944 CPM
[1]; [6]
  3H-Thymidine Uptake CPM + S.E.: 67,489 ± 5190 CPM

## CC(C)[C@H](NC(=O)[C@H](CCC(=O)O)NC(=O)[C@H](CCCCN)NC(=O)[C@H](CCCCN)NC(=O)[C@@H]1CCC(=O)N1)C(N)=O [p-Glu--Lys--Lys--Glu--Val--NH2, L-(5-oxoprolyl)-L-lysyl-L-lysyl-L-α-glutamyl-L-valinamide, diacetate salt] ([pGlu]KKEV-NH2)
[1]; 1.5 ng/culture, control (0 ng) 9,876 ± 951
  3H-Thymidine Uptake CPM + S.E.: 23,736 ± 3417 CPM
[1]; 6.0 ng/culture, control (0 ng) 9,876 ± 951
  3H-Thymidine Uptake CPM + S.E.: 31,236 ± 2004 CPM
[1]; 25.0 ng/culture, control (0 ng) 9,876 ± 951
  3H-Thymidine Uptake CPM + S.E.: 26,026 ± 3537 CPM
[1]; 100.0 ng/culture, control (0 ng) 9,876 ± 951
  3H-Thymidine Uptake CPM + S.E.: 27,830 ± 1749 CPM

## thymosin α1 (SDAAVDTSSEITTKDLKEKKEVVEEAEN; ends and bridges not checked; UniProt P06454 2-29, looked up)
[2]
  activity relative to the parent thymosin Fraction 5: 10-1,000 times
